# Test results reported in patent publication US20250269036A1, “METHODS FOR ENHANCEMENT OF ENGINEERED CELL THERAPIES IN CANCER TREATMENT” (PURDUE RESEARCH FOUNDATION, priority 2021, published 2025).
# Experiments:
# [1] = tested on: M2-induced human monocyte-derived macrophages; assay: Reprogramming of M2-induced human monocyte-derived macrophages; format: cell-based; details: 100 nM, 2 hours + 46 hours, excess FA-glucosamine
# Description: Changes in both sets of cytokines were inhibited by blockade of unoccupied folate receptors with excess FA-glucosamine (2+46h, competition).
# [2] = tested on: M2-induced THP-1 macrophages; assay: Secreted CCL18 and IL-1β in THP-1 macrophage supernatants by ELISA; format: cell-based, human
# Description: FIGS. 6A-6D show graphical data representative of various marker levels measured from M2-induced THP-1 macrophages treated with different concentrations of drugs for 48 hours (FIGS. 6A and 6B) or for 2 hours, then displaced with fresh medium and cultured for the remaining 46 hours (FIGS. 6C and 6D). In both cases, cell supernatants were collected and secreted CCL18 protein and IL-1β was detected by ELISA.
# CCL18 and IL-1β were quantified in induced THP-1 cell supernatants using a human DuoSet ELISA Development System (R&D Systems Europe, Abingdon, UK; #DY394-05) and an IL-1 beta Human ELISA Kit (Thermo Fisher Scientific, Waltham, MA; #BMS224-2) as described by manufactures. BALF samples were analyzed for mouse IFN-γ using ELISA MAX™ Deluxe (Biolegend, San Diego, CA; #430804).
# fibrotic lungs = assay: Staining of healthy and fibrotic lung sections (DAPI, anti-F4/80, anti-CD206); format: in vivo, mice; details: differences between treated groups
# Description: Sections from the same healthy and fibrotic lungs described in FIG. 6 were stained with DAPI (nuclei; blue), anti-F4/80 (macrophages; red), and anti-CD206 (M2 macrophage marker; green), and images were obtained with a Leica Versa 8 whole-slide scanner as described in Methods (n=2). Scale bars, 100 μm.
# BM-induced mice = tested on: BM-induced mice
# Description: Studies were also performed to determine if macrophages in pulmonary fibrotic lungs might be specifically targeted with folate-linked drugs in vivo. […] (The BM model is widely regarded to be helpful in terms of enabling mechanistic investigations relevant to fibrogenesis in an in vivo context.)
# More specifically, eight-week-old C57BL6 male mice from Charles River (average weight 22 g to 25 g) were housed under pathogen-free conditions at room temperature (22° C.) under a 12 hours light-dark cycle. Mice were placed on a folate deficient chow (Envigo Teklad Global Rat Food Pellets) for 1 week prior to the BM or PBS instillation. Fresh water and folate-deficient diet were freely available. All animal procedures were approved by the Purdue Animal Care and Use Committee in accordance with National Institute of Health guidelines.
# Thereafter, the mice were anesthetized with ketamine/xylazine and the necks of the mice were shaved using hair remover lotion and then sterilized with 70% alcohol. A small incision was made on the neck to visualize the trachea. Mice were positioned at a 75-degree angle and injected intratracheally with 100 μL sterile PBS or BM (Cayman Chemicals, Ann Arbor, MI; #13877) dissolved in PBS (0.75 mg/kg) using a 1 cc syringe with 26 G needle. Body weights were monitored every other day throughout the experiment.
# After 2 hours, mice were sacrificed using CO2 asphyxiation and an incision in the skin from the abdomen to neck was immediately made to expose the lungs and trachea. A small cut in the upper trachea was then introduced for insertion of a blunted, 22-gauge needle, and a nylon string was tied around the trachea to seal the trachea around the needle. The trachea (containing the inserted needle), lungs and heart were then removed en masse by carefully cutting the connective tissue beneath the lungs, and the bronchus of left lung was clipped with a Dieffenbach vessel clip. The right lung was injected with PBS and aspirated 3 times using a 1 ml syringe, and the recovered lavage fluid was saved on ice.
# Bronchoalveolar lavage fluid (BALF) was then analyzed to determine how the targeted TLR7 agonist works. BALF samples were centrifuged at 1500 rpm for 5 min at 4° C. and the supernatant was aliquoted and stored at −80° C. for cytokine/chemokine analyses. Cell pellets were resuspended and cultured in pre-warmed RPMI 1640 medium for 2 hours and then washed 3× with pre-warmed PBS prior to harvesting for qPCR assay. The right lung was then tied with a nylon string and used for subsequent analysis of hydroxyproline content. The left lung was inflated with 1 ml PBS using the inserted syringe and transferred to 10% formalin solution for subsequent histological analyses.
# Lobes of the right lung collected above were weighed, placed in a pressure-tight vial (Supelco Inc., Bellefonte, PA; #27003), and hydrolyzed with 6N HCl (10 ml/g, v/w) in a sand bath at 120° C. for 3.5 hours. The hydrolyzed solution was cooled at 4° C. for 15 min and transferred to a 1.5 ml Eppendorf tube prior to centrifugation at 12,000 rcf for 15 min at 4° C. Supernatant was carefully collected, aliquoted and used for hydroxyproline (HYP) analysis.
# For the subsequent HYP analysis, 10 μl of sample was transferred into a 96-well plate and neutralized with 10 μl of 5.3 M sodium hydroxide solution. Isopropanol (40 μl) was then added to each well followed by 20 μl of oxidation buffer and the mixture was incubated on a shaker at room temperature for 5 min. […]
# [3] = tested on: IL-4, IL-6 plus IL-13 stimulated THP-1 cells (M2-like macrophages); assay: Reprogramming of M2-polarized THP-1 macrophages, marker mRNA by qPCR; format: cell-based, human
# Description: THP-1 cells were initially selected as a model system because this human monocytic cell line is known to acquire an M2-like phenotype and produce significant quantities of anti-inflammatory cytokines upon stimulation with IL-4, IL-6 plus IL-13.
# THP-1 cells were seeded into 96-well plates at a density of 60,000 cells/well. Cells were differentiated into unpolarized macrophages by 48 hours incubation with 200 nM PMA followed by 24 hours incubation in fresh RPMI medium. […] Cultures were maintained at 37° C. in a humidified 5% CO2 incubator.
# Total RNA was isolated from 1×10^5-2×10^5 macrophages using a Quick-RNATM MicroPrep kit (Zymo Research, Irvine, CA) according to the manufacturer-recommended protocol. […] IL-6, CXCL10, IFNα, IFN-γ and CD86 were used as markers for an M1 phenotype, while CCL18, CD206, CD163 and Arg1 were employed as markers for the M2 phenotype. IL-1β, PDGFβ, MMP9 and TIMP 3 were measured as indicators of an anti-inflammatory phenotype. IRAK-4 was used as an indicator of TLR7 stimulation. To control for specificity of the amplification products, a melting curve analysis was performed. […] Each sample was analyzed independently in triplicate for each marker.
# Primarily, human monocytic (THP-1) cells were induced to the M2-like phenotype using the methods and materials previously described. In particular, THP-1 cells were seeded into 96-well plates at a density of 60,000 cells/well. Cells were differentiated into unpolarized macrophages by 48h incubation with 200 nM PMA followed by 24 hours incubation in fresh RPMI medium. The resulting macrophages were polarized to an M2-like phenotype by incubation with 20 ng/ml IL-4, 20 ng/ml IL-13, and 5 ng/mL IL-6 for 48h. Cultures were maintained at 37° C. in a humidified 5% CO2 incubator.
# In addition to the nonconjugated TLR7 agonist, conjugated compounds of the present disclosure were likewise evaluated. […] The cells were subsequently harvested for gene analysis by qPCR and the relative expression of CCL18 (FIG. 14A), CD206 (FIG. 14B), and IL-1β (FIG. 14C) analyzed.
# [4] = Stability during incubation in culture media; format: physicochemical; details: 37° C. in the culture media, 48 hours
# Description: Indeed, Compound 1B retained the original structure after 48 hours incubation.
# healthy mice = assay: Plasma cytokine levels in healthy mice after tail vein injection; format: in vivo
# Description: (FIGS. 20A-C) Measurement of plasma IL-6 (FIG. 20A), IFNα (FIG. 20B) and TNFα (FIG. 20C) (n=3). (FIGS. 20D-F). The effect of drug concentration on plasma levels of IL-6 (FIG. 20D), IFNα (FIG. 20E), and TNFα (FIG. 20F) was determined at 1.5h, 1h, or 1h after treatment, respectively (n=2) (FIG. 20G).
# (FIGS. 36C and 36D). The effect of drug on plasma levels of IL-6 (FIG. 36C) and TNFα (FIG. 36D) was determined at 1 hour or 1.5 hours after treatment.
# [5] = incubated continuously for 48 hours, ELISA
# [6] = 2 hours with drug, then drug-free medium
smiles,measurement,setting,value
CCCCc1nc2c(N)nc3ccccc3c2n1CC(C)(C)OC(=O)OCCSSCC(NC(=O)CCC(NC(=O)c1ccc(NCc2cnc3nc(N)[nH]c(=O)c3n2)cc1)C(=O)O)C(=O)O (centres unmarked) [Compound 1B],downregulation of biomarkers in presence of competitor,[1],blocked
same,"reduction of secreted CCL18 and IL-1β, comparison of compounds","[2]; drug exposure limited to 2 hours, then 46 hours fresh medium",superior
same,secreted CCL18 polypeptide,[2]; [5],reductions
same,secreted IL-1β polypeptide,[2]; [5],reductions
same,proinflammatory response in vivo (lung section staining),fibrotic lungs,robust proinflammatory response
same,lung histology with increasing dose,"BM-induced mice; 0, 1, 3 or 10 nmoles",lung histology improved
same,"hydroxyproline content of lung hydrolysates, order of efficacy by dose","BM-induced mice; 0, 1, 3 or 10 nmoles every other day from day 10, day 21",10 nmol/mouse>3 nmol/mouse>1 nmol/mouse>0 nmol/mouse
same,total number of BALF cells,"BM-induced mice; different doses, day 21",decreased in a dose-dependent manner
same,collagen stain (Masson's trichrome),BM-induced mice; tail vein injection,strongly suppressed
same,lung architecture (H&E staining),BM-induced mice; treated beginning on day 10,lung architecture that resembles that of healthy mice
same,"cancer/M2-type markers (CCL18, CD206, IL-1β, PDGFβ mRNA)","[3]; 2 hours incubation, harvested immediately or after further 46 hours",downregulated cancer/M2-type markers of macrophages more than Compound 1A
same,TNFα induction,[3]; [6],dramatically improved
same,potency in reprogramming relative to comparator,[3]; [6],superior potency relative to Compound 1A
same,M2 to M1 marker changes (FIGS. 3A-3F),"[3]; 48 hours incubation, various concentrations","same qualitative changes were observed, only the magnitude of the impact of Compound 1B was somewhat reduced"
same,stability during incubation,[4],remained stable
same,"inflammatory cytokine release, dose comparison","healthy mice; effect of drug concentration, 1.5h, 1h or 1h after treatment",stimulates less inflammatory cytokine release than half the dose of Compound 1A
same,"systemic cytokine release (plasma IL-6, IFNα, TNFα)","healthy mice; healthy mice, tail vein, 10 nmol",does not
